Legend:
[1] = target: T1, Kv11.1, the alpha subunit of a potassium ion channel (hERG) (Homo sapiens, UniProt Q12809); assay: cell-based; conditions: Blocker
T1 construct: host or cells: unnamed DiscoverX cell line

[2] = target: Adrenergic Receptor α1A (ADRA1A) (Homo sapiens, UniProt P35348); assay: SAFETYscan GPCR Calcium Flux; assay type: cell-based
[3] = target: T2, Dopamine Receptor D1 (DRD1) (Homo sapiens, UniProt P21728); assay: SAFETYscan GPCR cAMP; assay type: cell-based
T2 construct: host or cells: cAMP Hunter cell lines

[4] = target: T3, Norepinephrine transporter (NET) (Homo sapiens, UniProt P23975); assay: SAFETYscan Transporter assay; assay type: cell-based
T3 construct: host or cells: unnamed DiscoverX cell line

[5] = test system: PC12 dopaminergic cell cultures; assay: PC12 neurotropic (neurite outgrowth) assay; assay type: cell-based, rat
[6] = target: T4, Opioid Receptor Delta 1 (OPRD1) (Homo sapiens, UniProt P41143); assay: SAFETYscan GPCR cAMP; assay type: cell-based
T4 construct: host or cells: cAMP Hunter cell lines

[7] = Blood hematology and biochemistry after intravenous injection; assay type: in vivo; conditions: 250 mg/kg IV; 24 h from injection
[8] = target: Arginine Vasopressin Receptor 1A (AVPR1A) (Homo sapiens, UniProt P37288); assay: SAFETYscan GPCR Calcium Flux; assay type: cell-based; conditions: read-out: RC50 (the source's name)
[9] = test system: dorsal root ganglion (DRG) sensory neurons; assay: DRG neurite outgrowth assay; assay type: cell-based, mice; conditions: HU-MCA-13 5 μM, DRG explants, 5 days
Source text: In the second step, we study the effect of HU-MCA-13 on ex-vivo sensory neuronal cultures obtained from dissociated dorsal root ganglia (DRG), a model in which the neurons tend to extend neurites in culture at a high rate, and all neurite outgrowths are axons, as confirmed by immune staining for cytoskeletal-specific proteins.[27] […] By contrast, NGF induced a strong, 3.5-fold increase in neurite outgrowth to a value of 700 μm (Figure 1 and Figure 3B) and a ratio of 8.5 between the area covered by neurites and that covered by the DRG ganglia (Figure 3C). Similarly, HU-MCA-13 induced a 2.5 fold increase in neurite outgrowth to a value of about 500 μm (Figure 1 and Figure 3B) and a ratio of 5.4 between the area covered by neurites and that covered by the DRG ganglia (Figure 3C). […] These experiments extend the neurotropic effect of MCA-13 observed with PC12 dopaminergic neuronal cultures to DRG sensory neurons.
To perform these experiments, 10 DRGs were excised under sterile conditions and transferred to Dulbecco’s Modified Eagle Medium (DMEM) containing 0.25% Type IV collagenase in at 37 °C for 45 min, followed by a 20 min incubation with 0.025% trypsin in DMEM, to digest the associated connective tissue surrounding the neurons. After plating the ganglia onto collagen (50 μg/mL)/laminin mixture (5 μg/mL)-coated tissue culture wells for 24 h, DRG neurons were cultured for additional 1–7 days in fresh Neurobasal A/B27 medium[27] containing either 50 ng/mL NGF (positive control), medium containing 1% DMSO (negative control) or 5 μM MCA-13. The living cultures were photographed and thereafter, the ganglia were immunostained for β tubulin III and again photographed using a fluorescent microscope. A researcher blinded to the experimental conditions performed image analysis, and the neurite outgrowth length (in micrometers) was measured.[50]

Cyclooxygenase 1 (COX 1) = target: T5, Cyclooxygenase 1 (COX 1) (Homo sapiens, UniProt P23219); assay: biochemical; conditions: Inhibitor, Enzymatic
T5 construct: purchased BPS Bioscience

[10] = target: T6, Adrenergic Receptor β1 (ADRB1) (Homo sapiens, UniProt P08588); assay: SAFETYscan GPCR cAMP; assay type: cell-based; conditions: read-out: RC50 (the source's name)
T6 construct: host or cells: cAMP Hunter cell lines

[11] = read-out: RC50 (the source's name)

T1 sequence (Q12809 whole entry): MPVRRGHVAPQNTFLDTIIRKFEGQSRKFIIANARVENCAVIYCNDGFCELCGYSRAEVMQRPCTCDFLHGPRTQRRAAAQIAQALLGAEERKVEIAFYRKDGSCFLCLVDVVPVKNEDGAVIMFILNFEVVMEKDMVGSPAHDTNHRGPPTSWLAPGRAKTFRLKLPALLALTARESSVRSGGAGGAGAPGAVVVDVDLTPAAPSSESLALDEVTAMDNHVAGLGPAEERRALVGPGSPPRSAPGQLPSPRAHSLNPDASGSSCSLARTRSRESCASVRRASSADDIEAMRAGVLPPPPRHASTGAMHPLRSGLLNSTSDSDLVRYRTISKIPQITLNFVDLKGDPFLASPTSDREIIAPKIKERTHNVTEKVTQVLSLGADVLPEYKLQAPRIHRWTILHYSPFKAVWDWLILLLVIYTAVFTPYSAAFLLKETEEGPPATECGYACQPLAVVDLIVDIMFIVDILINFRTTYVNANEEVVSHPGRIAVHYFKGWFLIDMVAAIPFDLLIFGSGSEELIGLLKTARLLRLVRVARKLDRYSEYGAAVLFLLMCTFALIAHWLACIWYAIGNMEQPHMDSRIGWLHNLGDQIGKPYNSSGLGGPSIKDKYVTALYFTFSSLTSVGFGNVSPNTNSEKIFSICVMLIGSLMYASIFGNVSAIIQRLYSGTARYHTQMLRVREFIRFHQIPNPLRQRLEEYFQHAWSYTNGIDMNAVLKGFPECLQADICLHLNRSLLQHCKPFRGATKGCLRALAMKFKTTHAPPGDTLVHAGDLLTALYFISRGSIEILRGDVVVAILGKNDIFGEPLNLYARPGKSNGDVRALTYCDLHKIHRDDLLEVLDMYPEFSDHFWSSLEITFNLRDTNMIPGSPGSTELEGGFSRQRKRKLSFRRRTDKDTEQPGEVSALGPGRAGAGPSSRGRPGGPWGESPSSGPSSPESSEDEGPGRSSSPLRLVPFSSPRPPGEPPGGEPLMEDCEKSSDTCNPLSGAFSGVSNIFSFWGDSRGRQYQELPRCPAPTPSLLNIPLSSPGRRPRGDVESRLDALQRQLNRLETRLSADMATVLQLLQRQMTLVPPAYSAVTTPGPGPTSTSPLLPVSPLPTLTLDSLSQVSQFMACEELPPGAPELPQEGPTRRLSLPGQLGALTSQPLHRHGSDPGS
T5 sequence (P23219 24-599): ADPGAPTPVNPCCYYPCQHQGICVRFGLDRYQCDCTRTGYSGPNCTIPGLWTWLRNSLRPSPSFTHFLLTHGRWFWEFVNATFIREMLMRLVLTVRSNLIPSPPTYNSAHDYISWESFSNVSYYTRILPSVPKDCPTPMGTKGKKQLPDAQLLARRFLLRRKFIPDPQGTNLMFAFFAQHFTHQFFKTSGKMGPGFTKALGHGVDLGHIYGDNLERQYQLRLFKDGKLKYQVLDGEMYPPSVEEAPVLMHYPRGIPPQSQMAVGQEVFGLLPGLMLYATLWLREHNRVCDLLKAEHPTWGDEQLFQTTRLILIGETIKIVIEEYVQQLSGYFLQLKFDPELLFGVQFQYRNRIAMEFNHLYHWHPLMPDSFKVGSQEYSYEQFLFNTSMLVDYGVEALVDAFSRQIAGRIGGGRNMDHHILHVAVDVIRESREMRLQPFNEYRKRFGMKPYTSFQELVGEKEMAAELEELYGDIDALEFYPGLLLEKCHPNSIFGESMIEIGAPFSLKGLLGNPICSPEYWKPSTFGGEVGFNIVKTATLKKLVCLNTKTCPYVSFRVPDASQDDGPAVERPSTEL
T3 sequence (P23975 whole entry): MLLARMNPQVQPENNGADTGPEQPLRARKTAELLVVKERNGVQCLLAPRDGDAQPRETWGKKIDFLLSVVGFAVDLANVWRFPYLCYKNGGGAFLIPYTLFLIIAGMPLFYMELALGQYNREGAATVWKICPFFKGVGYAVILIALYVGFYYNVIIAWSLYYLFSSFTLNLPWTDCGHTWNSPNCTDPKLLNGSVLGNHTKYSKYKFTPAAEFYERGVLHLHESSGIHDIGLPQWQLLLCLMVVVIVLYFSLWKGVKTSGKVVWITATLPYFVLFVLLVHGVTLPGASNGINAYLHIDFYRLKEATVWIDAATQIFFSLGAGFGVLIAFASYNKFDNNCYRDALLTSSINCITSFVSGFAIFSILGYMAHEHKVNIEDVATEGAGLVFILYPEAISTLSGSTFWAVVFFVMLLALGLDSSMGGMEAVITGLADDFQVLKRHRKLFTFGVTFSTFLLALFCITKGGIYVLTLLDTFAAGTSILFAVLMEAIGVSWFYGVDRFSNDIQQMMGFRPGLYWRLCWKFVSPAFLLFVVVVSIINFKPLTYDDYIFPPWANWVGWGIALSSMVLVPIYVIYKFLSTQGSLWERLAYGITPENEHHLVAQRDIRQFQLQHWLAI
Arginine Vasopressin Receptor 1A (AVPR1A), sequence (P37288 whole entry): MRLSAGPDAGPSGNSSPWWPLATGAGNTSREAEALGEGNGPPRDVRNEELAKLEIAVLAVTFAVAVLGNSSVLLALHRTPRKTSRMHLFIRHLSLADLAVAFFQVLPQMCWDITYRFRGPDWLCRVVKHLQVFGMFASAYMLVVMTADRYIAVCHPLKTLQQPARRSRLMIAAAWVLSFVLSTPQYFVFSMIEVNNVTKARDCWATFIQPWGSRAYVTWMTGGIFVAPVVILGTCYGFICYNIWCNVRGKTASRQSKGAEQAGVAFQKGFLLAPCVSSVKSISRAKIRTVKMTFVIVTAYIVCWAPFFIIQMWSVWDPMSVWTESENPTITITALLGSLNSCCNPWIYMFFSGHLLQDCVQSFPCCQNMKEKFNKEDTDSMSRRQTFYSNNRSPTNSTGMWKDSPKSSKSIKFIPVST
T6 sequence (P08588 whole entry): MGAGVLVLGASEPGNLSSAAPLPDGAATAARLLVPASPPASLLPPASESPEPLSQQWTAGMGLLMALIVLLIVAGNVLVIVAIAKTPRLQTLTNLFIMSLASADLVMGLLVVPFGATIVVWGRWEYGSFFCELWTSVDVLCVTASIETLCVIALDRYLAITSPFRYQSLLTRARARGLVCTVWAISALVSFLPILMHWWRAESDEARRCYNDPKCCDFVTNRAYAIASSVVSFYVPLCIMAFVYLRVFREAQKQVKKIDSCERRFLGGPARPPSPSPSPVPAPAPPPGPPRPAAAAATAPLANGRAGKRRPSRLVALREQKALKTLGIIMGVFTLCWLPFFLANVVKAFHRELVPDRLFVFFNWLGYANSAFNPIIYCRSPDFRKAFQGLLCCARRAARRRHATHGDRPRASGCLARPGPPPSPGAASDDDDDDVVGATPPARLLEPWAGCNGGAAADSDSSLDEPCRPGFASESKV
Adrenergic Receptor α1A (ADRA1A), sequence (P35348 whole entry): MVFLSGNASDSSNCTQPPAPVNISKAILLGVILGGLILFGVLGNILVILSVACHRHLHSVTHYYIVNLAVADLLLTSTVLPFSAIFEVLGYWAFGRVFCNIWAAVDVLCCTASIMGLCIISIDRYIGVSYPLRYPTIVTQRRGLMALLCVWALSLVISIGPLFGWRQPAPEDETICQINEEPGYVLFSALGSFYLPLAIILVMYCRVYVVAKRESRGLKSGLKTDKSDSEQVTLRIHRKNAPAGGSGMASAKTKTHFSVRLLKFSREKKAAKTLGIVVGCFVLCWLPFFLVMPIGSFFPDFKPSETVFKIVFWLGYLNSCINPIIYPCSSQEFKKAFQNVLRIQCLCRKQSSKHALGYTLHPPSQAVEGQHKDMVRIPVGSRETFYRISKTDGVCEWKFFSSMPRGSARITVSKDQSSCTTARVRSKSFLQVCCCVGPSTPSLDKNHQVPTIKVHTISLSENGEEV
T2 sequence (P21728 whole entry): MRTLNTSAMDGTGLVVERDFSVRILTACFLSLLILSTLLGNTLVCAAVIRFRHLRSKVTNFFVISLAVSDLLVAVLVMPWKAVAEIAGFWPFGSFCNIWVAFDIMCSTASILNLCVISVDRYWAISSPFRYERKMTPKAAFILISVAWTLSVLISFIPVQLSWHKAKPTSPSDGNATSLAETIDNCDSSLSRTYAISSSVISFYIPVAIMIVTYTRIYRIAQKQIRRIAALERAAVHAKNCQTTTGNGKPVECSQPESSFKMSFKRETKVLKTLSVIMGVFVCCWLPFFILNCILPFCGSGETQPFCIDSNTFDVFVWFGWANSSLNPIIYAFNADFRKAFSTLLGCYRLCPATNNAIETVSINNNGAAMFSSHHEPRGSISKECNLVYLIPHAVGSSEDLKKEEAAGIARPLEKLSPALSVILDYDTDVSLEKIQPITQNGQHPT
T4 sequence (P41143 whole entry): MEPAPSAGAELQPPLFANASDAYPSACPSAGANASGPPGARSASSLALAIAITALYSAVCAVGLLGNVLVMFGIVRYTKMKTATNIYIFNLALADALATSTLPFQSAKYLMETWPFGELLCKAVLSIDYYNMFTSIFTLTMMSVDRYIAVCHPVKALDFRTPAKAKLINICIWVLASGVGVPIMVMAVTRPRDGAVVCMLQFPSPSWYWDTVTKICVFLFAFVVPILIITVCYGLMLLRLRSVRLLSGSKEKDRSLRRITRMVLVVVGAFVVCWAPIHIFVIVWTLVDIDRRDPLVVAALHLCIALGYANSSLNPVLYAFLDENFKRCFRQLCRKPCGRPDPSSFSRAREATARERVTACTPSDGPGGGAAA

With `C=CCC1CCCC(CCC(=O)O)C1=C` (stereo not shown) [HU-MCA-13, 3-(3-allyl-2-methylenecyclohexyl)propanoic acid] the “MCA-13 Max. Responce” value ([1]; 10 μM) was 0%, the IC50 [1, 11] was > 10 µM and the EC50 [2] was > 10 µM. For the same compound, the IC50 [2] was > 10 µM, the EC50 [3] was > 10 µM and the IC50 [3] was > 10 µM. For the same compound, the IC50 [4] was > 10 µM, the inhibition at 10 µM ([4]; 10 μM, Blocker, Transporter, read-out: MCA-13 Max. Responce) was 3.53% and the “neurotropic effect in the presence of Trk A inhibitor K252a” value ([5]; 250 nM K252a, 10 μM HU-MCA-13) was “did not abolished”. The “β tubulin III expression in cell bodies and neurite outgrowths (immunostaining)” value ([5]; 5 μM, 7 days) was “expressed β tubulin III”, the neurite outgrowth ([5]; HU-MCA-13 1 μM) was 10–15% and the “neurite outgrowth, Df” value ([5]; HU-MCA-13 1 μM) was 0.04. The EC50 [6] was > 10 µM, the IC50 [6] was > 10 µM and the “bilirubin concentration versus DMSO” value [7] was “small significant increase”. The “blood count versus DMSO” value [7] was “No difference”, the “coagulation parameters versus DMSO” value [7] was “No difference” and the “electrolytes versus DMSO” value [7] was “No difference”. For the same compound, the “kidney and liver parameters versus DMSO” value [7] was “lack of differences”, the EC50 ([8]; Agonist) was > 10 µM and the IC50 ([8]; Antagonist) was > 10 µM. For the same compound, the neurite outgrowth length [9] was “about 500 μm”, the “ratio between the area covered by neurites and that covered by the DRG ganglia” value [9] was 5.4 and the “fold increase in neurite outgrowth” value ([9]; versus control medium) was 2.5 fold. For the same compound, the inhibition at 10 µM (Cyclooxygenase 1 (COX 1); 10 μM, read-out: MCA-13 Max. Responce) was 25%, the IC50 (Cyclooxygenase 1 (COX 1); [11]) was > 10 µM and the EC50 ([10]; Agonist) was > 10 µM. The IC50 ([10]; Antagonist) was > 10 µM.

Source: paper PMC7497641, “Neurotropic activity and safety of methylene-cycloalkylacetate (MCA) derivative 3-(3-allyl-2-methylenecyclohexyl) propanoic acid” (ACS Chemical Neuroscience, 2020)
